Test results published in patent publication US20180221329A1, “CIS- AND TRANS-SUFFRUTICOSOL D AS THERAPEUTIC AGENTS” (MIDDLE TENNESSEE STATE UNIVERSITY, priority 2015, published 2018).

Experiments:
[1] = tested on: HMEC cells (primary human mammary breast epithelial cells); assay: Cell proliferation assay (AlamarBlue), normal HMEC; type: cell-based; settings: 48 h
Protocol: (§1) Cell culture. Four human cancer cell lines including A549 (lung carcinoma), BT20 (estrogen receptor-negative human breast adenocarcinoma), MCF-7 (estrogen receptor-positive human breast adenocarcinoma) and U2OS (human osteosarcoma) were purchased from American Type Culture Collection (ATCC). An A549 cell line that stably expresses Green Fluorescent Protein (GFP) was purchased from Cell BioLabs Inc. (San Diego, Calif., USA). A549, A549-GFP and BT20 cells were cultured in RPMI 1640 media (Sigma-Aldrich, St. Louis, Mo., USA), MCF7 cells were cultured in DMEM medium (ATCC, Manassas, Va., USA), and U20S cells were cultured in McCoy's 5A medium (ATCC, Manassas, Va., USA). As a control, HMEC cells (primary human mammary breast epithelial cells) were purchased from ATCC and cultured in McCoy's 5A medium. All medium contained 10% FBS (Sigma-Aldrich, St. Louis, Mo., USA) and 1% streptomycin and penicillin (Sigma-Aldrich, St. Louis, Mo., USA). These cells were incubated in a humid environment with 5% CO2 at 37° C.
(§2) Cell proliferation assay. The resazurin reduction reagent AlamarBlue (Invitrogen, Frederick, Md., USA) was used to evaluate the cytotoxicity of the compounds. Cells were plated at a density of 5×10^3 cells per well in 96-well microplates with 100 μl culture medium, and were allowed to attach for 16 h prior to treatment. Next, all the medium was replaced with medium containing the cis- or trans-suffruticosol D compounds at seven different concentrations: 320, 100, 32, 10, 3.2, 1.0, and 0.32 μM. The cells were placed in an incubator for 48 h at 37° C. Cells that were treated with medium-containing vehicle (1% DMSO) only serve as negative control. Subsequently, AlamarBlue solution was added to the medium and the cells were incubated in the CO2 incubator for 1 h. The fluorescent intensity change of the dye was measured at Ex 555 nm and Em 590 nm using a plate reader (Molecular Devices, Sunnyvale, Calif., USA). The cytotoxicity was examined by determining by IC50, the dose that inhibited 50% of cell growth, using GraphPad Prism software (GraphPad Software, La Jolla, Calif., USA).
(§3) Table 1. IC50 values of cis- and trans-suffruticosol D in selected cancer and normal cell lines. Cells were treated with various concentrations of cis- or trans-suffruticosol D for 48 h, and the viability of cells was evaluated with AlamarBlue dye.

[2] = tested on: U2OS (human osteosarcoma) cells; assay: Cell proliferation assay (AlamarBlue), U2OS; type: cell-based; settings: for Selectivity: U2OS versus normal HMEC cells; for IC50: U2OS, 48 h, AlamarBlue
Protocol: as §1, §2, §3

A549 cells [3] = assay: Oxidative stress assay (ROS, DHE, HCS reader); type: cell-based, human; settings: 24 h
Protocol: FIGS. 3A and 3B depict induction of oxidative stress by cis- and trans-suffruticosol D in A549 cells. A549 cells were treated with various concentrations of cis- or trans-suffruticosol D for 24 h, then stained with Hoechst and dihydroethidium (DHE) dye. Cells treated with Doxorubicin served as a positive control, and cells treated with vehicle only served as a negative control. The reactive oxygen species (ROS) levels were measured by the fluorescent intensity of DHE that was converted to ethidium bromide.
Oxidative stress assay. The Hitkit oxidative stress kit (Thermo Scientific, Waltham, Mass., USA) was used to determine the generation of reactive oxygen species (ROS) according to the manufacturer's instructions. Briefly, A549 cells were treated with cis- or trans-suffruticosol D for 24 h, fixed with warm 37% formaldehyde and stained with Hoechst and dihydroethidium (DHE) dye for 30 min at 37° C. with 5% CO2. Doxorubicin (DOX) at 1 μM concentration was used as a positive control and cells treated with vehicle only were used as negative control. ROS generation in the nuclei was indicated by the production of the fluorescent ethidium, and assessed by measuring the nuclear fluorescent intensity using an ArrayScan VTI High-content screening (HCS) reader (Thermo Scientific, Waltham, Mass., USA). Images were acquired and data was analyzed by vHCS Scan software.

[4] = tested on: NF-κB p65 nuclear translocation; assay: NF-κB nuclear translocation assay (HCS); type: cell-based, human; settings: 4 h, then TNF-α 30 min, A549
Protocol: FIGS. 6A and 6B depict inhibition of NF-κB translocation by cis- and trans-suffruticosol D in A549 cells. A549 cells were treated with various concentrations of cis- or trans-suffruticosol D for 4 h and then stimulated with […] TNF-α for 30 min. Cells treated with TNF-α alone or the vehicle only served as controls. The NF-κB translocation index was measured by the fluorescent intensity difference between the nucleus and cytoplasm.
NF-κB nuclear translocation assay. A Multiplexed NF-κB activation HCS Kit (Thermo Scientific, Waltham, Mass., USA) was used to assess NF-κB nuclear translocation. A549 cells were pre-treated with different concentrations of cis- or trans-suffruticosol D for 4 h, then 10 ng/mL of TNF-α was added to the cells for an additional 30 min. After treatment, cells were fixed and permeabilized prior to detection. NF-κB distribution was detected by adding NF-κB p65 primary antibodies and then staining with a secondary antibody conjugated with DyLight 549 and Hoechst dye (Thermo Scientific, Waltham, Mass., USA). […] Cells were imaged using an Arrayscan VTI HCS reader (Thermo Scientific, Waltham, Mass., USA). Data on the mean difference of NF-κB fluorescent intensity between the nuclear and cytoplasmic areas were collected and analyzed by vHCS Scan software.

A549 cells [5] = assay: Apoptosis assay (Annexin V/7-AAD flow cytometry); type: cell-based, human; settings: 24 h
Protocol: FIGS. 2A-E depict induction of apoptosis by cis- and trans-suffruticosol D in A549 cells. After 24 h treatment by cis- or trans-suffruticosol D, A549 cells were stained with Annexin V/7-amino-actinomycin D (7-AAD) and the percentage of apoptotic cells, as measured by fluorescence intensity, was assessed by flow cytometry. Cells treated with the vehicle, 1% dimethylsulfoxide, DMSO, only served as a negative control.
Apoptosis assay. The FlowCellect Annexin Red Kit (EMD Millipore, Billerica, Mass., USA) was used to determine the apoptosis rate in A549 cells according to the manufacturer's instructions. Briefly, A549 cells were plated in 96-well plates. After a 24 h treatment with cis- or trans-suffruticosol D at concentrations of 100, 32, and 10 μM, the floating and attached cells were collected for analysis. The cells were centrifuged at 700×g for 7 min and were resuspended in 100 μL Assay Buffer (EMD Millipore, Billerica, Mass., USA). Afterwards, the cells were stained with annexin-V for 15 min and 7-amino-actinomycin D (7-AAD) for 5 min, and examined with a Guava EasyCyte Flow Cytometer (EMD Millipore, Billerica, Mass., USA). Data was analyzed using Guava InCyte software.

| SMILES | IC50 [1] | IC50 ([1]; listed as cis-SD) | Selectivity ([2]; listed as cis-SD) | IC50 ([2]; listed as cis-SD) | increase of ROS levels (A549 cells [3]; 10 μM) | increase of ROS levels (A549 cells [3]; 32 μM) | increase of ROS levels (A549 cells [3]; 100 μM) | inhibition of NF-κB activation (nuclear translocation index) ([4]; 100 μM only) | A549 cells induced into apoptosis (A549 cells [5]; 10 μM) | A549 cells induced into apoptosis (A549 cells [5]; 32 μM) | A549 cells induced into apoptosis (A549 cells [5]; 100 μM) | IC50 ([1]; listed as trans-SD) | IC50 ([1]; Homo sapiens, HMEC) | Selectivity ([2]; listed as trans-SD) | IC50 ([2]; listed as trans-SD) | inhibition of NF-κB activation (nuclear translocation index) ([4]; all the tested concentrations) |
| --- | --- | --- | --- | --- | --- | --- | --- | --- | --- | --- | --- | --- | --- | --- | --- | --- |
| Oc1ccc(C=Cc2c3c(cc4c2[C@@H](c2cc(O)cc(O)c2)[C@H](c2ccc(O)cc2)O4)O[C@H](c2ccc(O)cc2)[C@@H]3c2cc(O)cc(O)c2)cc1 [cis-suffruticosol D] | 146 µM | 269.5 ± 2.2 µM | 11 | 24.6 ± 4.4 µM | 32.8% | 55.6% | 73.1% | significant inhibition | 22.2% | 27.1% | 45.3% | – | – | – | – | – |
| Oc1ccc(/C=C/c2c3c(cc4c2[C@@H](c2cc(O)cc(O)c2)[C@H](c2ccc(O)cc2)O4)O[C@H](c2ccc(O)cc2)[C@@H]3c2cc(O)cc(O)c2)cc1 [trans-suffruticosol D] | – | – | – | – | 32.8% | 34.6% | 87.2% | – | 30.1% | 39.8% | 41.9% | 146 ± 2.7 µM | 270 µM | 12.9 | 11.3 ± 2.3 µM | significant inhibition |
